# Measurements reported in article PMC10165273, “Itch receptor MRGPRX4 interacts with the receptor activity–modifying proteins” (The Journal of Biological Chemistry, 2023).
# “And” between values parts separate entries of the source, which are not always exact repeats. Equal entries are not always repeated. Where two headings read alike, the source gives them in different places.
# Key:
# [1] = target: T1, MRGPRX4 + RAMP3 (Homo sapiens, UniProt Q96LA9); test: BRET2 β-arrestin2 recruitment, MRGPRX4 with RAMP3; assay type: cell-based
# T1 construct: expressed in transfected cells; host or cells: HEK293T
# Procedure: (§1) The method for homogenous transfection of β-Arrestin and BRET^2 assay of β-Arrestin recruitment has been described previously ([51]). […] BRET^2 measurements were taken on the BioTek Synergy NEO2 microplate reader.
# (§2) The BRET ratio for each sample was determined by calculating the ratio of the light intensity emitted by the GFP10 (515 nm) (acceptor) over the light intensity emitted by the RLuc3 (395 nm) (donor). Net BRET^2 was determined by subtracting the basal BRET^2 (β-arrestin-RLuc3 only) signal from the BRET^2 signals. All BRET values were normalized to the MRGPRX4-only condition.
# [2] = test system: MRGPRX4; design: method as in Cao et al. [23]; settings: ref Cao et al. [23]; read-out: Ca2+ flux EC50; cited from earlier work
# [3] = test system: mock-transfected cells; test: BRET2 β-arrestin recruitment time course, mock-transfected cells; assay type: cell-based, human; settings: Fig 5c, 100μM ligand, listed as Ng
# [4] = test system: MRGPRX4; design: method as in PMID 25895059; settings: ref [10]; read-out: phosphatidylinositol hydrolysis EC50; cited from earlier work
# [5] = target: T2, MRGPRX4 (Homo sapiens, UniProt Q96LA9); test: BRET2 β-arrestin1 recruitment to MRGPRX4; assay type: cell-based; settings: for net BRET2 ratio, βArr1 recruitment: Fig 5a, 100µM ligand, replicate values, listed as Ng
# T2 construct: expressed in transfected cells; host or cells: HEK293T
# Procedure: as §1
# (§3) For MRGPRX4 DNA titration assays, HEK293T cells were cotransfected with either β-Arrestin1 or β-Arrestin2 with increasing amounts of MRGPRX4 (0.5, 1, or 2 pg/cell).
# as §2
# [6] = target: T3, MRGPRX4 + RAMP1 (Homo sapiens, UniProt Q96LA9); test: BRET2 β-arrestin2 recruitment, MRGPRX4 with RAMP1; assay type: cell-based; settings: RAMP1 coexpression vs MRGPRX4 alone (Fig. 5F)
# T3 construct: expressed in transfected cells; host or cells: HEK293T
# Procedure: as §1, §2
# [7] = target: T2, MRGPRX4; test: BRET2 β-arrestin2 recruitment to MRGPRX4; assay type: cell-based; settings: for net BRET2 ratio, βArr2 recruitment: Fig 5b, 100µM ligand, replicate values; for net BRET2 ratio, βArr2 recruitment / BRET2 ratio: listed as Ng; for BRET2 ratio: Fig 5c, MRGPRX4, 100μM ligand
# Text: as §1, §3
# To measure the time-course of β-Arrestin2 recruitment to MRGPRX4 and CALCRL, the transfection and general procedure described above was followed, with the modification that Prolume Purple was added first, followed by addition of the appropriate agonists ([51]).
# as §2
# T1 sequence (Q96LA9 whole entry): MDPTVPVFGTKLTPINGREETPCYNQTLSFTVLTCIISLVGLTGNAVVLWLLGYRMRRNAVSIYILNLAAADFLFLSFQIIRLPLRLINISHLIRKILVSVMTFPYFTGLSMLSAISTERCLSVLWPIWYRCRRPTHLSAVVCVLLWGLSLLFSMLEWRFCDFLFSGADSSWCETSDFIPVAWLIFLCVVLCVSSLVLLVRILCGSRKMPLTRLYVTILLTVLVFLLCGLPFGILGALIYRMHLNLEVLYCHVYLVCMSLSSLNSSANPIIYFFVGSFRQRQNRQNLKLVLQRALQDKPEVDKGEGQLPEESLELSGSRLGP
# T2 sequence (Q96LA9 whole entry): as above
# T3 sequence (Q96LA9 whole entry): as above
structure (smiles),measurement,setting,value
CC(C)[C@H]1CC[C@H](C(=O)N[C@H](Cc2ccccc2)C(=O)O)CC1 [Nateglinide],normalized β-arrestin2 recruitment BRET2 signal (Figure 5f),"[1]; MRGPRX4 + RAMP3, 100μM Ng, listed as Ng",0.6122 and 0.604 and 0.6466 and 0.7957
same,attenuation of β-arrestin2 recruitment upon nateglinide treatment,[1]; RAMP3 coexpression vs MRGPRX4 alone (Fig. 5F),34%
same,EC50,[2],4.72 µM
same,BRET2 ratio,[3]; 60 s,0.008415 and 0.007646 and 0.00794
same,BRET2 ratio,[3]; 120 s,0.007842 and 0.007685 and 0.007289
same,BRET2 ratio,[3]; 180 s,0.007259 and 0.007981 and 0.007565
same,BRET2 ratio,[3]; 240 s,0.007155 and 0.006788 and 0.008148
same,BRET2 ratio,[3]; 300 s,0.007567 and 0.007447 and 0.007514
same,BRET2 ratio,[3]; 360 s,0.008471 and 0.007058 and 0.007429
same,BRET2 ratio,[3]; 420 s,0.007097 and 0.007188 and 0.007508
same,BRET2 ratio,[3]; 480 s,0.006826 and 0.007196 and 0.007205
same,BRET2 ratio,[3]; 540 s,0.008083 and 0.00749 and 0.00867
same,BRET2 ratio,[3]; 600 s,0.007686 and 0.006192 and 0.007271
same,BRET2 ratio,[3]; 660 s,0.006698 and 0.007765 and 0.007192
same,BRET2 ratio,[3]; 720 s,0.00801 and 0.006623 and 0.005548
same,BRET2 ratio,[3]; 780 s,0.009777 and 0.007416 and 0.006284
same,BRET2 ratio,[3]; 840 s,0.007062 and 0.008946 and 0.00672
same,BRET2 ratio,[3]; 900 s,0.007894 and 0.008249 and 0.007741
same,BRET2 ratio,[3]; 960 s,0.008424 and 0.006304 and 0.008892
same,BRET2 ratio,[3]; 1020 s,0.008684 and 0.007837 and 0.007668
same,BRET2 ratio,[3]; 1080 s,0.008011 and 0.008281 and 0.007344
same,BRET2 ratio,[3]; 1140 s,0.009425 and 0.00762 and 0.007536
same,BRET2 ratio,[3]; 1200 s,0.006477 and 0.008078 and 0.009426
same,BRET2 ratio,[3]; 1260 s,0.008155 and 0.006248 and 0.008937
same,BRET2 ratio,[3]; 1320 s,0.008765 and 0.01027 and 0.007016
same,BRET2 ratio,[3]; 1380 s,0.009766 and 0.009472 and 0.01001
same,EC50,[4],2.1 µM
same,β-arrestin1 recruitment to MRGPRX4,[5]; 100 μM agonist (Fig. 5A),very low β-arrestin1 recruitment
same,"net BRET2 ratio, βArr1 recruitment","[5]; MRGPRX4 20ng, 0.5 pg DNA/cell",0.001598 and 0.001911 and 0.001766 and 0.001511 and 0.001907 and 0.001761 and 0.001482 and 0.001441 and 0.001223 and 0.001859 and 0.001157 and 0.001231 and 0.00136 and 0.0008839 and 0.000388 and 0.001053 and 0.001203 and 0.000951 and 0.0007681 and 0.0005323 and 0.0008933 and 0.0008719 and 0.001239 and 0.001046 and 0.001091
same,"net BRET2 ratio, βArr1 recruitment","[5]; MRGPRX4 40ng, 1 pg DNA/cell",0.001875 and 0.002517 and 0.002385 and 0.001913 and 0.002075 and 0.001709 and 0.001872 and 0.002414 and 0.002488 and 0.001826 and 0.002129 and 0.001258 and 0.0007412 and 0.002042 and 0.001771 and 0.001548 and 0.001966 and 0.0009568 and 0.001828 and 0.001183 and 0.001043 and 0.001073 and 0.0007023 and 0.00193 and 0.002589 and 0.001421 and 0.00209
same,"net BRET2 ratio, βArr1 recruitment","[5]; MRGPRX4 80ng, 2 pg DNA/cell",0.002996 and 0.002474 and 0.002377 and 0.001821 and 0.003223 and 0.002725 and 0.001839 and 0.003232 and 0.002812 and 0.002723 and 0.003057 and 0.001936 and 0.00205 and 0.002139 and 0.001864 and 0.00174 and 0.001944 and 0.002317 and 0.002724
same,"net BRET2 ratio, βArr1 recruitment","[5]; βArr1 only, 0 pg MRGPRX4 DNA/cell",0.0003439 and -7.335e-5 and -0.0002706 and -9.392e-5 and -0.0001296 and 0.0002236 and -2.118e-6 and -0.0001045 and 0.0001067 and 0.000324 and -0.0001421 and -0.0001819 and 0.0002245 and -0.0001005 and -0.000124 and -9.463e-5 and 0.0003743 and -0.0002797 and -0.0002549 and 6.253e-5 and 0.0001923 and 0.0001254 and -0.000481 and 0.0003557 and 0.0001817 and -2.148e-5 and -0.0001602
same,decrease in β-arrestin2 recruitment upon nateglinide treatment,[6],~10%
same,β-arrestin2 recruitment to MRGPRX4,"[7]; 100 μM agonist (Fig. 5B, C)",recruited β-arrestin2 more strongly than β-arrestin1
same,"net BRET2 ratio, βArr2 recruitment","[7]; MRGPRX4 20ng, 0.5 pg DNA/cell",0.01059 and 0.011 and 0.01083 and 0.009137 and 0.01004 and 0.009779 and 0.007885 and 0.007959 and 0.007875 and 0.009405 and 0.008616 and 0.00928 and 0.007811 and 0.00797 and 0.009994 and 0.008653 and 0.00706 and 0.007614 and 0.007209 and 0.007504 and 0.007132 and 0.006566 and 0.006348 and 0.007157 and 0.004522 and 0.007759 and 0.005207
same,"net BRET2 ratio, βArr2 recruitment","[7]; MRGPRX4 40ng, 1 pg DNA/cell",0.01411 and 0.01341 and 0.01314 and 0.01164 and 0.01153 and 0.01104 and 0.009585 and 0.009093 and 0.008671 and 0.0118 and 0.009621 and 0.01107 and 0.01117 and 0.01052 and 0.009545 and 0.01099 and 0.00914 and 0.009334 and 0.008409 and 0.01062 and 0.01019 and 0.008186 and 0.008003 and 0.007557 and 0.007525 and 0.005338 and 0.009291
same,"net BRET2 ratio, βArr2 recruitment","[7]; MRGPRX4 80ng, 2 pg DNA/cell",0.01501 and 0.01563 and 0.01506 and 0.0134 and 0.0136 and 0.01318 and 0.01149 and 0.0115 and 0.01095 (2×) and 0.01387 and 0.01159 and 0.01257 and 0.01157 and 0.01276 and 0.01058 and 0.009957 and 0.009364 and 0.01169
same,"net BRET2 ratio, βArr2 recruitment","[7]; βArr2 only, 0 pg MRGPRX4 DNA/cell",0.0002584 and -0.0001954 and -6.2982e-5 and -0.0001775 and 0.0006514 and -0.0004739 and -9.3811e-5 and 0.0004305 and -0.0003367 and -6.4621e-5 and -0.0005147 and 0.0005793 and -0.0001286 and 0.0001629 and -3.4338e-5 and 0.0006863 and -0.0005797 and -0.0001066 and -6.7124e-5 and 1.05e-5 and 5.6622e-5 and 0.0001307 and -0.0006572 and 0.0005265 and 0.0006391 and 0.0003062 and -0.0009453
same,BRET2 ratio,[7]; 60 s,0.01411 and 0.01234 and 0.0129
same,BRET2 ratio,[7]; 120 s,0.01624 and 0.01368 and 0.01342
same,BRET2 ratio,[7]; 180 s,0.01716 and 0.01419 and 0.01539
same,BRET2 ratio,[7]; 240 s,0.01732 and 0.01509 and 0.01494
